Values quoted from earlier work, collected in publication PMC7395068, “The evolution of strategies to minimise the risk of human drug-induced liver injury (DILI) in drug discovery and development” (Archives of Toxicology, 2020).
Structures can show the parent of a compound that is named as a salt. Where two headings read alike, the source gives them in different places. *1 amine or outer side, *2 acyl side, *3 side chain or, on linkers, in order; H or OH if unused. Where a SMILES comes first, the peptide text is derived from it. Bridges are numbered along the chain shown (N, C = ends). [ ]: non-standard residue; d: D form. The star is where a group is joined. pTerphenylCO(4''-OnC5H11) = CCCCCOc1ccc(-c2ccc(-c3ccc(C(=O)*)cc3)cc2)cc1; Orn(4R-OH,5R-OH) = O=C([C@H](C[C@@H](O)[C@@H](O)N[*:3])N[*:1])[*:2]; hTyr(3S-OH,4S-OH) = N[C@H](C(=O)O)[C@H](O)[C@@H](O)c1ccc(O)cc1; Pro(3S-OH,4S-Me) = C[C@H]1CN[C@H](C(=O)O)[C@H]1O; Hyp = O=C(O)[C@@H]1C[C@@H](O)CN1

Conditions: cited from earlier work
[1] = LTKB DILIrank category, ref Chen 2016
[2] = binary DILI call, ref Chen 2016

| Structure (SMILES) | DILI severity category [1] | DILI +VE (5-8), DILI -VE (-4) [2] | further results |
| --- | --- | --- | --- |
| OC[C@H]1O[C@@H](O[C@@H]2[C@@H](CO)OC(O)(CO)[C@H]2O)[C@H](O)[C@@H](O)[C@H]1O (mixture of isomers) [lactulose] | – | – | DILI +VE (5-8), DILI -VE (-4) (binary in vivo human DILI call, ref Chen 2016): -VE; DILI severity category (human DILI, LTKB DILIrank category, ref Chen 2016): vNo-DILI-Concern |
| CCCCC(C)(O)C/C=C/[C@H]1[C@H](O)CC(=O)[C@@H]1CCCCCCC(=O)OC (mixture of isomers) [misoprostol] | – | – | DILI +VE (5-8), DILI -VE (-4) (in vivo): -VE; DILI severity category (in vivo): Ambiguous DILI-concern |
| O=C(O)CCCc1ccccc1 [4-phenylbutyric acid] | Ambiguous DILI-concern | -VE | – |
| Nc1nc(=O)c2c([nH]1)NC[C@H](CNc1ccc(C(=O)N[C@@H](CCC(=O)O)C(=O)O)cc1)N2C=O [Levoleucovorin] | – | – | DILI +VE (5-8), DILI -VE (-4) (in vivo): -VE; DILI severity category (in vivo): vNo-DILI-Concern |
| CC(=O)NCCCS(=O)(=O)O [acamprosate] | – | – | DILI +VE (5-8), DILI -VE (-4) (in vivo): +VE; DILI severity category (in vivo): vLess-DILI-Concern |
| CCCC(=O)Nc1ccc(OCC(O)CNC(C)C)c(C(C)=O)c1 (stereo not shown) [acebutolol] | vLess-DILI-Concern | – | – |
| O=C(O)COC(=O)Cc1ccccc1Nc1c(Cl)cccc1Cl [aceclofenac] | – | – | DILI +VE (5-8), DILI -VE (-4) (in vivo): +VE; DILI severity category (in vivo): vLess-DILI-Concern |
| CC(=O)NO [acetohydroxamic acid] | – | – | DILI +VE (5-8), DILI -VE (-4) (in vivo): -VE; DILI severity category (in vivo): Ambiguous DILI-concern |
| Nc1ncnc2c1ncn2CCOCP(=O)(O)O [adefovir] | vLess-DILI-Concern | – | – |
| CC(N)C(=O)OC(C)(C)Cc1ccc(Cl)cc1 (stereo not shown) [alaproclate] | vMost-DILI-Concern | – | – |
| C[C@H](N)C(=O)N[C@@H](C)C(=O)N[C@H]1[C@@H]2CN(c3nc4c(cc3F)c(=O)c(C(=O)O)cn4-c3ccc(F)cc3F)C[C@@H]21 [alatrofloxacin mesylate] | vMost-DILI-Concern | – | – |
| C=CCOc1ccc(CC(=O)O)cc1Cl [alclofenac] | vMost-DILI-Concern | – | – |
| COc1cc2nc(N(C)CCCNC(=O)C3CCCO3)nc(N)c2cc1OC (stereo not shown) [alfuzosin] | vLess-DILI-Concern | – | – |
| CN(C)CCc1c[nH]c2ccc(CS(=O)(=O)N3CCCC3)cc12 [almotriptan] | vNo-DILI-Concern | -VE | – |
| Cc1nnc2n1-c1ccc(Cl)cc1C(c1ccccc1)=NC2 [alprazolam] | – | – | DILI +VE (5-8), DILI -VE (-4) (in vivo): +VE; DILI severity category (in vivo): vLess-DILI-Concern |
| C[C@H]1CN(C[C@H](Cc2ccccc2)C(=O)NCC(=O)O)CC[C@@]1(C)c1cccc(O)c1 [alvimopan] | vNo-DILI-Concern | -VE | – |
| CC[N+](CC)(CCNC(=O)C(=O)NCC[N+](CC)(CC)Cc1ccccc1Cl)Cc1ccccc1Cl [ambenonium] | – | – | DILI +VE (5-8), DILI -VE (-4) (in vivo): -VE; DILI severity category (in vivo): vNo-DILI-Concern |
| NCCCNCCSP(=O)(O)O [amifostine] | vNo-DILI-Concern | -VE | – |
| NCCCCCC(=O)O [aminocaproic acid] | vNo-DILI-Concern | -VE | – |
| Nc1ccc(C(=O)NCC(=O)O)cc1 [aminohippurate] | – | – | DILI +VE (5-8), DILI -VE (-4) (in vivo): -VE; DILI severity category (in vivo): vNo-DILI-Concern |
| CCOC(=O)C1=C(COCCN)NC(C)=C(C(=O)OC)C1c1ccccc1Cl (stereo not shown) [amlodipine] | – | – | DILI +VE (5-8), DILI -VE (-4) (in vivo): +VE; DILI severity category (in vivo): vLess-DILI-Concern |
| CC(N)Cc1ccccc1 (stereo not shown) [amphetamine] | – | – | DILI +VE (5-8), DILI -VE (-4) (in vivo): +VE; DILI severity category (in vivo): vLess-DILI-Concern |
| CC(C)CN(C[C@@H](O)[C@H](Cc1ccccc1)NC(=O)O[C@H]1CCOC1)S(=O)(=O)c1ccc(N)cc1 [amprenavir] | Ambiguous DILI-concern | -VE | – |

| Structure (SMILES) | DILI severity category [1] | DILI +VE (5-8), DILI -VE (-4) [2] | further results |
| --- | --- | --- | --- |
| O=C1CN2Cc3c(ccc(Cl)c3Cl)N=C2N1 [anagrelide] | Ambiguous DILI-concern | -VE | – |
| CCCCCOc1ccc(-c2ccc(-c3ccc(C(=O)N[C@H]4C[C@@H](O)[C@@H](O)NC(=O)[C@@H]5[C@@H](O)[C@@H](C)CN5C(=O)[C@H]([C@@H](C)O)NC(=O)[C@H]([C@H](O)[C@@H](O)c5ccc(O)cc5)NC(=O)[C@@H]5C[C@@H](O)CN5C(=O)[C@H]([C@@H](C)O)NC4=O)cc3)cc2)cc1 [anidulafungin] ({pTerphenylCO(4''-OnC5H11)}-[Orn(4R-OH,5R-OH)]T[Hyp][hTyr(3S-OH,4S-OH)]T[Pro(3S-OH,4S-Me)]; lactam 1-C) | Ambiguous DILI-concern | -VE | – |
| CN1CCc2cccc3c2[C@H]1Cc1ccc(O)c(O)c1-3 [apomorphine] | vNo-DILI-Concern | -VE | – |
| NC(=O)C[S@@+]([O-])C(c1ccccc1)c1ccccc1 [armodafinil] | Ambiguous DILI-concern | -VE | – |
| CNCC[C@@H](Oc1ccccc1C)c1ccccc1 [atomoxetine] | vMost-DILI-Concern | – | – |
| O=C1C(O)=C([C@H]2CC[C@H](c3ccc(Cl)cc3)CC2)C(=O)c2ccccc21 [atovaquone] | Ambiguous DILI-concern | -VE | – |
| COc1ccc(CC2c3cc(OC)c(OC)cc3CC[N+]2(C)CCC(=O)OCCCCCOC(=O)CC[N+]2(C)CCc3cc(OC)c(OC)cc3C2Cc2ccc(OC)c(OC)c2)cc1OC (stereo not shown) [atracurium] | vNo-DILI-Concern | -VE | – |
| CC(=O)OC[C@H]1O[C@@H]([S-])[C@H](OC(C)=O)[C@@H](OC(C)=O)[C@@H]1OC(C)=O.CCP(CC)CC.[Au+] [auranofin] | vLess-DILI-Concern | – | – |
| Nc1ncn([C@@H]2O[C@H](CO)[C@@H](O)[C@H]2O)c(=O)n1 [azacitidine] | Ambiguous DILI-concern | -VE | – |
| O=C(O)CCNC(=O)c1ccc(/N=N/c2ccc(O)c(C(=O)O)c2)cc1 [balsalazide] | Ambiguous DILI-concern | -VE | – |
| Cn1c(CCCC(=O)O)nc2cc(N(CCCl)CCCl)ccc21 [bendamustine] | – | – | DILI +VE (5-8), DILI -VE (-4) (in vivo): -VE; DILI severity category (in vivo): vNo-DILI-Concern |
| O=C(O)COc1nn(Cc2ccccc2)c2ccccc12 [bendazac] | vMost-DILI-Concern | – | – |
| NS(=O)(=O)c1cc2c(cc1C(F)(F)F)NC(Cc1ccccc1)NS2(=O)=O (stereo not shown) [bendroflumethiazide] | vLess-DILI-Concern | – | – |
| CCCCNc1ccc(C(=O)OCCOCCOCCOCCOCCOCCOCCOCCOCCOC)cc1 [benzonatate] | vLess-DILI-Concern | – | – |
| C[C@@H](Cc1ccccc1)N(C)Cc1ccccc1 [benzphetamine] | – | – | DILI +VE (5-8), DILI -VE (-4) (in vivo): -VE; DILI severity category (in vivo): vNo-DILI-Concern |
| CC(C)NCC(O)COc1ccc(CCOCC2CC2)cc1 (stereo not shown) [betaxolol] | Ambiguous DILI-concern | -VE | – |
| CC(C[N+](C)(C)C)OC(N)=O (stereo not shown) [bethanechol] | vNo-DILI-Concern | -VE | – |
| CC(C)C[C@H](NC(=O)[C@H](Cc1ccccc1)NC(=O)c1cnccn1)B(O)O [bortezomib] | vMost-DILI-Concern | – | – |
| CC(C)C[C@H]1C(=O)N2CCC[C@H]2[C@]2(O)O[C@](NC(=O)[C@@H]3C=C4c5cccc6[nH]c(Br)c(c56)C[C@H]4N(C)C3)(C(C)C)C(=O)N12 [bromocriptine] | vLess-DILI-Concern | – | – |
| CCC(C)C1(CC)C(=O)NC(=O)NC1=O (stereo not shown) [butabarbital] | Ambiguous DILI-concern | -VE | – |
| C=CCN1C[C@H](C(=O)N(CCCN(C)C)C(=O)NCC)C[C@@H]2c3cccc4[nH]cc(c34)C[C@H]21 [cabergoline] | vNo-DILI-Concern | -VE | – |
| CC(C)C[C@H](NC(=O)[C@H](CCCCN)NC(=O)CNC(=O)[C@H](CC(C)C)NC(=O)[C@@H](NC(=O)[C@@H]1CSSC[C@H](N)C(=O)N[C@@H](CO)C(=O)N[C@@H](CC(N)=O)C(=O)N[C@@H](CC(C)C)C(=O)N[C@@H](CO)C(=O)N[C@@H]([C@@H](C)O)C(=O)N1)C(C)C)C(=O)N[C@@H](CO)C(=O)N[C@@H](CCC(N)=O)C(=O)N[C@@H](CCC(=O)O)C(=O)N[C@@H](CC(C)C)C(=O)N[C@@H](Cc1c[nH]cn1)C(=O)N[C@@H](CCCCN)C(=O)N[C@@H](CC(C)C)C(=O)N[C@@H](CCC(N)=O)C(=O)N[C@H](C(=O)N[C@@H](Cc1ccc(O)cc1)C(=O)N1CCC[C@H]1C(=O)N[C@@H](CCCNC(=N)N)C(=O)N[C@H](C(=O)N[C@@H](CC(N)=O)C(=O)N[C@H](C(=O)NCC(=O)N[C@@H](CO)C(=O)NCC(=O)N[C@H](C(=O)N1CCC[C@H]1C(N)=O)[C@@H](C)O)[C@@H](C)O)[C@@H](C)O)[C@@H](C)O [calcitonin salmon] | – | – | DILI +VE (5-8), DILI -VE (-4) (in vivo): -VE; DILI severity category (in vivo): vNo-DILI-Concern |
| C=C1/C(=C\C=C2/CCC[C@]3(C)[C@@H]([C@H](C)CCCC(C)(C)O)CC[C@@H]23)C[C@@H](O)C[C@@H]1O [calcitriol] | vNo-DILI-Concern | -VE | – |
